Broadly, the IC50 is the concentration that gives 50% inhibition. A higher IC50 goes with weaker potency.

In assay [1] the test system is large cell lung cancer NCI-H460. Briefly: Low folate in vitro proliferation assay, NCI-H460. The format is cell-based. As to conditions: Homo sapiens, 168 h; NCI-H460, low folate media, 7 days. The text has this: Allow cells to attach overnight. […] Final concentration of compounds will be 1×. […] Dose cells with compounds of interest for 7 days. […] Determine % inhibition for each sample (see Table 18).

For another assay, the system named is AICARFT. Briefly: AICARFT in vivo target inhibition (IVTI) assay in mouse plasma (AICAr). The procedure:
In vivo studies are performed using female athymic nude mice (Harlan) with a bodyweight of 23-28 g at first measurement. Upon receipt and throughout the study, the animals are housed 5 animals per cage in appropriately sized solid-bottom cages with contact bedding. The animal room is maintained on a 12-hour light/dark cycle. Animals are acclimated for 14 days prior to implantation of the NCI-H460 or HCT-116 cells on low folate diet (Teklad 130451) ad libitum and autoclaved tap water is provided ad libitum. The HCT-116 and NCI-H460 cell line are obtained from American Type Culture Collection (ATCC) and is cultured following ATCC instructions. Cells used for implantation are harvested during log phase growth and suspended in serum-free media. The suspended cells are then diluted 1:1 with BD Matrigel Matrix (ref 354234). Cells are injected in the right flank with 5.0E+06 cells (0.2 mL cell/Matrigel suspension). Tumors are monitored beginning day 8 post implant. Animals are redistributed into groups with 5-6 animals per group utilizing proprietary randomization software when average tumor volume reaches 200 mm^3. Groups 1-12 are maintained on a low folate diet (Teklad 130451) and folic acid (Sigma F8798 Lot #SLBH0909V) administration at doses listed in the Table 19 began 28 hours prior to dose initiation and 4 hours prior to each dose. Folic acid is formulated weekly in PBS and dosed via oral gavage at 0.2 mL. Groups 13-16 are placed on standard chow (Teklad 2920X) at randomization. The compound is formulated weekly in 20% HPBCD in Phosphate buffer pH 8 with one molar equivalent NaOH added. The formulated compound is administered at the doses and schedules indicated in Table 19 by oral gavage (0.2 mL). The vehicle is also given QD as the control arm of the study. Tumor volume and body weight are measured 2× a week. Tumor volume is determined by caliper measurements (mm) and using the formula for an ellipsoid sphere: tumor volume (mm^3)=length×width^2/2, where length and width refer to the larger and smaller perpendicular dimensions collected at each measurement. The animal behavior and animal health are monitored daily during dosing period.
The in vivo effects of AICARFT inhibition on the circulating concentration of AICAr is determined by liquid chromatography-mass spectrometry (LC-MS). Standard curves containing AICAr at concentrations of 1 ng/mL-2000 ng/mL are prepared in 40 mM ammonium acetate, pH 4. Plasma samples (75 μL) or standards (75 μL) are combined with 300 μL of an internal standard solution containing 13C5-AICAr (20 ng/mL) and formic acid (1%) in ACN. The samples are vortex mixed for 5 minutes and passed through a Phenomenex Phree 96-well phospholipid removal SPE plate. The eluents are collected in a 96-well plate and dried under heated nitrogen at 50° C. Each sample is reconstituted in 50 μL of 40 mM ammonium acetate, pH 4. The plates are sealed and vortexed for 5 minutes prior to analysis. The LC-MS method utilized a Shimadzu Prominence 20A HPLC system connected to an AB Sciex 5500™ or an AB Sciex 6500™ triple quadrupole mass spectrometer running Analyst® software. Extracted samples are separated using two Thermo Hypercarb™ Javelin guard columns (2.1×20 mm, 5 μm) connected in series with an injection volume of 15 μL and a flow rate of 1 mL/minute. Mobile phase A is a 95:5 mixture of 50 mM ammonium formate, pH 4 and ACN. Mobile phase B is a 70:30 mixture of ACN and MeOH spiked with 0.3% formic acid and 2% concentrated ammonium hydroxide solution (v/v). For mouse plasma samples the following gradient is used: 0 minutes, 0% B; 0.25 minutes, 0% B; 2.00 minutes, 25% B; 2.01 minutes, 95% B; 3.50 minutes, 95% B; 3.51 minutes, 0% B; 4.50 minutes, stop. For dog plasma samples the following gradient is used to remove endogenous interferences: 0 minutes, 0% B; 0.25 minutes, 0% B; 5.99 minutes, 20% B; 6.00 minutes, 95% B; 8.00 minutes, 95% B; 8.01 minutes, 0% B; 10.00 minutes, stop. […]

Consider `O=c1[nH]ccc2cc(F)c(NS(=O)(=O)c3ccc(N4CC[C@@H](O)C4)s3)cc12` [Example 1, N-(6-Fluoro-1-oxo-1,2-dihydroisoquinolin-7-yl)-5-[(3R)-3-hydroxypyrrolidin-1-yl]thiophene-2-sulfonamide], for which, in assay [1], the IC50 came out at 20 nM. Moreover, the “Mean Plasma AICAr” value with AICARFT (HCT-116 xenograft mice, Group 6, low folate diet, folic acid 0.75 mg/kg (QD × 15, orally), 10 mg/kg QD × 14, orally, Day 23) was found to be 88 nM; in the assay with AICARFT (HCT-116 xenograft mice, Group 7, low folate diet, folic acid 0.75 mg/kg (QD × 15, orally), 30 mg/kg QD × 14, orally, Day 23), 181 nM; with AICARFT (HCT-116 xenograft mice, Group 14, standard chow, no folic acid, 10 mg/kg QD × 14, orally, Day 23), 44 nM; in the assay on AICARFT (HCT-116 xenograft mice, Group 15, standard chow, no folic acid, 30 mg/kg QD × 14, orally, Day 23), 154 nM; with AICARFT (NCI-H460 xenograft mice, Group 14, standard chow, no folic acid, 10 mg/kg QD × 13, orally, Day 20), 368 nM; in the assay with AICARFT (NCI-H460 xenograft mice, Group 15, standard chow, no folic acid, 30 mg/kg QD × 13, orally, Day 20) it was 1400 nM.

The values above are taken from patent publication US9776992B2, “1-oxo-1,2-dihydroisoquinolin-7-yl-(5-substituted-thiophen-2-yl)-sulfonamide compounds, formulations containing those compounds, and their use as AICARFT inhibitors in the treatment of cancers” (Eli Lilly and Company, priority 2014, dated 2017).
